{"source": "patent US20150307938A1", "about": "“METHOD TO IDENTIFY A NOVEL CLASS OF IMMUNOLOGIC ADJUVANTS” (Lancell, L.L.C., priority 2011, published 2015)", "test_system": "skin", "assay": "Affymetrix microarray of skin, DBP-4 hr and analogs vs. untreated; gene selection by log-2 fold change, Wilcoxon, Kendall tau (Tables 8, 9)", "type": "in vivo, mouse", "key": {"[1]": {"settings": "Kendall tau, expression vs. output"}}}
{"smiles": "CCCCOC(=O)c1ccccc1C(=O)OCCCC", "note": "[DBP, dibutylphthalate]", "values": [{"measurement": "Oxr1 NM_001130166_at Kendall", "setting": "[1]", "result": "Yes"}, {"measurement": "Pgam2 NM_018870_at Kendall", "setting": "[1]", "result": "No"}, {"measurement": "Pigyl NM_001082532_at Kendall", "setting": "[1]", "result": "Yes"}, {"measurement": "Pparg NM_001127330_at Kendall", "setting": "[1]", "result": "Yes"}, {"measurement": "Ppih NM_001110129_at Kendall", "setting": "[1]", "result": "Yes"}, {"measurement": "Prg4 NM_021400_at Kendall", "setting": "[1]", "result": "No"}, {"measurement": "Retnla NM_020509_at Kendall", "setting": "[1]", "result": "No"}, {"measurement": "Rffl NM_001007465_at Kendall", "setting": "[1]", "result": "Yes"}, {"measurement": "Rn18s NR_003278_at Kendall", "setting": "[1]", "result": "No"}, {"measurement": "Rpl3l NM_025425_at Kendall", "setting": "[1]", "result": "No"}, {"measurement": "Slc39a14 NM_001135151_at Kendall", "setting": "[1]", "result": "Yes"}, {"measurement": "Sln NM_025540_at Kendall", "setting": "[1]", "result": "No"}, {"measurement": "Smpx NM_025357_at Kendall", "setting": "[1]", "result": "No"}, {"measurement": "Tnfrsf9 NM_001077508_at Kendall", "setting": "[1]", "result": "Yes"}, {"measurement": "Tnfrsf9 NM_001077509_at Kendall", "setting": "[1]", "result": "Yes"}, {"measurement": "Tnni1 NM_021467_at Kendall", "setting": "[1]", "result": "No"}, {"measurement": "Trdn NM_029726_at Kendall", "setting": "[1]", "result": "No"}, {"measurement": "Trf NM_133977_at Kendall", "setting": "[1]", "result": "No"}, {"measurement": "Trp63 NM_001127259_at Kendall", "setting": "[1]", "result": "Yes"}, {"measurement": "Trp63 NM_001127260_at Kendall", "setting": "[1]", "result": "Yes"}, {"measurement": "Trp63 NM_001127262_at Kendall", "setting": "[1]", "result": "Yes"}, {"measurement": "Trp63 NM_001127264_at Kendall", "setting": "[1]", "result": "Yes"}, {"measurement": "Ttn NM_028004_at Kendall", "setting": "[1]", "result": "No"}, {"measurement": "Wbp1 NM_001083922_at Kendall", "setting": "[1]", "result": "Yes"}, {"measurement": "Wbp1 NM_001083923_at Kendall", "setting": "[1]", "result": "Yes"}, {"measurement": "Wfdc2 NM_026323_at Kendall", "setting": "[1]", "result": "No"}, {"measurement": "Zfp68 NM_001044747_at Kendall", "setting": "[1]", "result": "Yes"}, {"measurement": "Zfp187 NM_001013786_at Kendall", "setting": "[1]", "result": "Yes"}, {"measurement": "Zfp518b NM_001081144_at Kendall", "setting": "[1]", "result": "Yes"}, {"measurement": "Zfp943 NM_001025373_at Kendall", "setting": "[1]", "result": "Yes"}, {"measurement": "Wilcoxon", "setting": "Map3k8 NM_007746_at, DBP-4 hr vs. untreated", "result": "No"}, {"measurement": "Kendall", "setting": "Map3k8 NM_007746_at, Kendall tau coefficient", "result": "No"}, {"measurement": "DBP Expression: Adam8", "setting": "NM_007403_at, DBP-4 hr", "result": 8.84}, {"measurement": "DBP Expression: Birc3", "setting": "NM_007464_at, DBP-4 hr", "result": 10.36}, {"measurement": "DBP Expression: Btg2", "setting": "NM_007570_at, DBP-4 hr", "result": 10.63}, {"measurement": "DBP Expression: Cebpd", "setting": "NM_007679_at, DBP-4 hr", "result": 10.17}, {"measurement": "DBP Expression: Socs2", "setting": "NM_007706_at, DBP-4 hr", "result": 8.92}, {"measurement": "DBP Expression: Socs3", "setting": "NM_007707_at, DBP-4 hr", "result": 9.48}, {"measurement": "DBP Expression: Map3k8", "setting": "NM_007746_at, DBP-4 hr", "result": 8.72}, {"measurement": "DBP Expression: Csf2rb", "setting": "NM_007780_at, DBP-4 hr", "result": 7.73}, {"measurement": "DBP Expression: Csrp1", "setting": "NM_007791_at, DBP-4 hr", "result": 9.89}, {"measurement": "DBP Expression: Egr1", "setting": "NM_007913_at, DBP-4 hr", "result": 12.15}, {"measurement": "DBP Expression: F2rl1", "setting": "NM_007974_at, DBP-4 hr", "result": 9.38}, {"measurement": "DBP Expression: Fgfbp1", "setting": "NM_008009_at, DBP-4 hr", "result": 11.47}, {"measurement": "DBP Expression: Gjb2", "setting": "NM_008125_at, DBP-4 hr", "result": 8.85}, {"measurement": "DBP Expression: Gpr65", "setting": "NM_008152_at, DBP-4 hr", "result": 5.48}, {"measurement": "DBP Expression: Cxcl1", "setting": "NM_008176_at, DBP-4 hr", "result": 10.24}, {"measurement": "DBP Expression: Gyk", "setting": "NM_008194_at, DBP-4 hr", "result": 9.63}, {"measurement": "DBP Expression: Hdc", "setting": "NM_008230_at, DBP-4 hr", "result": 8.51}, {"measurement": "DBP Expression: Il10ra", "setting": "NM_008348_at, DBP-4 hr", "result": 6.97}, {"measurement": "DBP Expression: Il1b", "setting": "NM_008361_at, DBP-4 hr", "result": 7.67}, {"measurement": "DBP Expression: Il7r", "setting": "NM_008372_at, DBP-4 hr", "result": 7.70}, {"measurement": "DBP Expression: Junb", "setting": "NM_008416_at, DBP-4 hr", "result": 9.71}, {"measurement": "DBP Expression: Krt6a", "setting": "NM_008476_at, DBP-4 hr", "result": 10.76}, {"measurement": "DBP Expression: Mt2", "setting": "NM_008630_at, DBP-4 hr", "result": 13.23}, {"measurement": "DBP Expression: Serpine1", "setting": "NM_008871_at, DBP-4 hr", "result": 8.32}, {"measurement": "DBP Expression: Cxcl2", "setting": "NM_009140_at, DBP-4 hr", "result": 8.67}, {"measurement": "DBP Expression: Sprr1a", "setting": "NM_009264_at, DBP-4 hr", "result": 10.84}, {"measurement": "DBP Expression: Stc1", "setting": "NM_009285_at, DBP-4 hr", "result": 7.56}, {"measurement": "DBP Expression: Tnfaip2", "setting": "NM_009396_at, DBP-4 hr", "result": 8.85}, {"measurement": "DBP Expression: Tnfaip3", "setting": "NM_009397_at, DBP-4 hr", "result": 7.22}, {"measurement": "DBP Expression: Tnfaip6", "setting": "NM_009398_at, DBP-4 hr", "result": 8.79}, {"measurement": "DBP Expression: Traf1", "setting": "NM_009421_at, DBP-4 hr", "result": 6.04}, {"measurement": "DBP Expression: Ccrn4l", "setting": "NM_009834_at, DBP-4 hr", "result": 10.05}, {"measurement": "DBP Expression: Cd44", "setting": "NM_009851_at, DBP-4 hr", "result": 9.82}, {"measurement": "DBP Expression: Ch25h", "setting": "NM_009890_at, DBP-4 hr", "result": 7.68}, {"measurement": "DBP Expression: Cish", "setting": "NM_009895_at, DBP-4 hr", "result": 9.37}, {"measurement": "DBP Expression: Eif1a", "setting": "NM_010120_at, DBP-4 hr", "result": 9.39}, {"measurement": "DBP Expression: Epha2", "setting": "NM_010139_at, DBP-4 hr", "result": 8.60}, {"measurement": "DBP Expression: Fkbp5", "setting": "NM_010220_at, DBP-4 hr", "result": 8.58}, {"measurement": "DBP Expression: Fosl1", "setting": "NM_010235_at, DBP-4 hr", "result": 6.85}, {"measurement": "DBP Expression: Hbegf", "setting": "NM_010415_at, DBP-4 hr", "result": 8.85}, {"measurement": "DBP Expression: Nr4a1", "setting": "NM_010444_at, DBP-4 hr", "result": 10.34}, {"measurement": "DBP Expression: Icam1", "setting": "NM_010493_at, DBP-4 hr", "result": 10.54}, {"measurement": "DBP Expression: Ier2", "setting": "NM_010499_at, DBP-4 hr", "result": 10.73}, {"measurement": "DBP Expression: Cyr61", "setting": "NM_010516_at, DBP-4 hr", "result": 9.37}, {"measurement": "DBP Expression: Jun", "setting": "NM_010591_at, DBP-4 hr", "result": 9.74}, {"measurement": "DBP Expression: Osmr", "setting": "NM_011019_at, DBP-4 hr", "result": 7.49}, {"measurement": "DBP Expression: Plaur", "setting": "NM_011113_at, DBP-4 hr", "result": 7.68}, {"measurement": "DBP Expression: Rab20", "setting": "NM_011227_at, DBP-4 hr", "result": 6.73}, {"measurement": "DBP Expression: Ccl12", "setting": "NM_011331_at, DBP-4 hr", "result": 8.47}, {"measurement": "DBP Expression: Ccl2", "setting": "NM_011333_at, DBP-4 hr", "result": 9.45}, {"measurement": "DBP Expression: Slc7a5", "setting": "NM_011404_at, DBP-4 hr", "result": 10.00}, {"measurement": "DBP Expression: Bhlhe40", "setting": "NM_011498_at, DBP-4 hr", "result": 10.32}, {"measurement": "DBP Expression: Cirh1a", "setting": "NM_011574_at, DBP-4 hr", "result": 9.51}, {"measurement": "DBP Expression: Zfp36", "setting": "NM_011756_at, DBP-4 hr", "result": 10.39}, {"measurement": "DBP Expression: Crem", "setting": "NM_013498_at, DBP-4 hr", "result": 6.91}, {"measurement": "DBP Expression: Gzmb", "setting": "NM_013542_at, DBP-4 hr", "result": 5.74}, {"measurement": "DBP Expression: Mt1", "setting": "NM_013602_at, DBP-4 hr", "result": 12.73}]}
